{"source": "paper PMC6518791", "about": "“Gluconate suppresses seizure activity in developing brains by inhibiting CLC-3 chloride channels” (Molecular Brain, 2019)", "biological_target": "T1, CLC-3 Cl^− channels (neonatal mouse hippocampal CA3 pyramidal neurons) (Mus musculus, UniProt P51791)", "T1 construct": "gene Clcn3; native channel, CA3 pyramidal neurons in hippocampal slices (P10-12); current largely absent in Clcn3-/- neurons", "T1 sequence (P51791 1-818)": "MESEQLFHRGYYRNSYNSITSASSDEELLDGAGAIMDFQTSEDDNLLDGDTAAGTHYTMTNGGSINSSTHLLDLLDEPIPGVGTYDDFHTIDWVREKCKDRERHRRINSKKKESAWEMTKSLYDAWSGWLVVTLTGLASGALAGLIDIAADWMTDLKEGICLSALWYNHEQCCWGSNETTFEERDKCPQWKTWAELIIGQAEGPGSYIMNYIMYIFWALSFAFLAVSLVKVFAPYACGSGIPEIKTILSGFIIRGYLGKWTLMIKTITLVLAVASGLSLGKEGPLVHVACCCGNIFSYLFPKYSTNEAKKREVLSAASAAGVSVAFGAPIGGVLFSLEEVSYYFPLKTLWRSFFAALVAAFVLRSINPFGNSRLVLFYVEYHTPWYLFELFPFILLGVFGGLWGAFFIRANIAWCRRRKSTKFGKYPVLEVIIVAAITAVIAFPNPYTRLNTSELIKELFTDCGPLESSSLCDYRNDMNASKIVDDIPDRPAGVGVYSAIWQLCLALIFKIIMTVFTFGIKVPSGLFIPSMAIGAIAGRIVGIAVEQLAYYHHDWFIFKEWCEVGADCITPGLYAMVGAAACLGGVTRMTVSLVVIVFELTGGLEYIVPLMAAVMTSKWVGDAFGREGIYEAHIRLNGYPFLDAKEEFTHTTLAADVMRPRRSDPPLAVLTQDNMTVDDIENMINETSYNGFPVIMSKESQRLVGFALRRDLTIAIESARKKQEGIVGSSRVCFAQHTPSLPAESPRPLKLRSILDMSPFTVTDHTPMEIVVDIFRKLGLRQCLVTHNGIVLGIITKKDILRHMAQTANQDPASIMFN", "experiment": "whole-cell patch clamp, voltage-dependent Cl- current in brain slices", "conditions": "total neuronal Cl- current, no knockout control told", "data": [{"smiles": "C[C@@H](O)CC(=O)O", "note": "[β-HB]", "values": [{"measurement": "IC50", "value": "~6.2", "unit": "mM"}]}]}
